Data on seven compounds can be found in PMC11728683, “Colon-Targeted Poly(ADP-ribose) Polymerase Inhibitors Synergize Therapeutic Effects of Mesalazine Against Rat Colitis Induced by 2,4-Dinitrobenzenesulfonic Acid” (Pharmaceutics, 2024).

One data set deals with PARP. More on the design: method as in PMID 30196390, PMID 17235412. To be noted: cited from earlier work.
Data set [1] in a line: Distribution coefficient (log D6.8), pH 6.8 isotonic phosphate buffer/n-octanol. The settings on record: n-octanol/pH 6.8 isotonic phosphate buffer; 1-octanol/isotonic phosphate buffer (pH 6.8). In kind it is physicochemical. On the procedure:
Distribution coefficients (log D6.8) of the PARP inhibitors and their derivatives were measured using a pH 6.8 isotonic phosphate buffer/n-octanol system, as described in a previous paper.

In data set [2] the test system is murine macrophage RAW264.7 cells challenged with LPS. Kind of data set: LPS-mediated induction of iNOS and COX-2 in RAW264.7 cells (Western blot). The format is cell-based. The settings on record: pretreated 1 h with 5-ASA (20 mM), 3-AB (1 mM), 5-AIQ (10 μM), then LPS 24 h. On the procedure: Tissue samples (0.2 g/mL) were homogenized in pre-chilled radioimmunoprecipitation assay buffer (50 mM Tris-HCl [pH 7.4], 1 mM EDTA, 0.7% Na deoxycholate, 1% NP-40, 150 mM NaCl, 0.3 μM aprotinin, 1 μM pepstatin, and 1 mM phenylmethylsulfonyl fluoride). The homogenates were centrifuged at 10,000× g at 4 °C for 10 min, followed by agitation on ice for 30 min. Whole and nuclear cell lysates were prepared as described previously. The protein concentrations in the lysates were determined using bicinchoninic acid (Thermo Fisher Scientific, Waltham, MA, USA) according to the manufacturer’s instructions. Cell and tissue lysates were separated by SDS-PAGE on 10% and 7.5% gels. Nrf2, HO-1, cyclooxygenase-2 (COX-2), and inducible nitric oxide synthase (iNOS) proteins were detected using the following antibodies: anti-Nrf2 (sc-365949, Santa Cruz Biotechnology, Dallas, TX, USA), anti-HO-1 (sc-136961, Santa Cruz Biotechnology), anti-COX-2 (sc-365374, Santa Cruz Biotechnology), anti-iNOS (NOS-2) antibody (sc-7271, Santa Cruz Biotechnology), and secondary antibodies corresponding to the primary antibodies (Santa Cruz Biotechnology). Protein bands were visualized using SuperSignal chemiluminescence substrate (Thermo Fisher Scientific). α-Tubulin were detected using antibodies specific to each protein (Santa Cruz Biotechnology) as loading controls. […]
Background: Immunoblotting shows a protein as a band on a membrane.

Data set [3] in a line: Drug concentration in the cecum after oral administration. The format is in vivo, rat. To be noted: rats. The procedure:
Male Sprague–Dawley rats were fasted for 24 h but had access to water. 5-AIQ (10 mg/kg), AQSA-Glu (equivalent to 10 mg/kg 5-AIQ), 3-AB (17 mg/kg), and ABSA (equivalent to 17 mg/kg 3-AB) in PBS (1.0 mL) were administered to the rats by oral gavage. Blood samples were collected via cardiac puncture at 2, 4, and 8 h after the oral gavage. The blood samples were centrifuged at 10,000× g at 4 °C for 10 min to obtain the plasma (0.3 mL). The plasma (0.1 mL) was transferred to a centrifuge tube and mixed with methanol (0.9 mL). The supernatants were filtered through a membrane filter (0.45 μm), and then the filtrate (20.0 μL) was subjected to HPLC analysis. To determine drug concentrations in the cecum, cecal contents were collected at 2, 4, and 8 h after oral gavage and mixed with pH 6.8 isotonic phosphate buffer to make a 10% suspension, which was subjected to centrifugation at 10,000× g for 10 min at 4 °C. The supernatants (0.1 mL) were transferred to fresh microtubes, followed by the addition of MeOH (0.9 mL). After centrifugation at 10,000× g at 4 °C for 7 min and subsequent filtration through a membrane filter (0.45 μm), the concentrations of PARP inhibitors in the filtrates (20 μL) were analyzed using HPLC.

Another data set concerns DNBS-induced rat colitis. Kind of data set: DNBS-induced rat colitis model (anticolitic effects). The format is in vivo. The procedure: DNBS-induced colitis was produced in rats as previously described. Two independent animal experiments were performed to evaluate the anticolitic effects of the drugs. For the first experiment, the rats were divided into the following five treatment groups (n = 5 per group): group 1 (normal group), oral gavage of 1.0 mL of PBS; group 2 (colitis group), oral gavage of 1.0 mL of PBS; group 3 (5-AIQ-treated colitis group), oral gavage of 5-AIQ (5 mg/kg) in 1.0 mL of PBS; group 4 [AQSA-Glu-treated colitis group (L)], oral gavage of AQSA-Glu (7.5 mg/kg, equivalent to 2.5 mg/kg of 5-AIQ) in 1.0 mL of PBS; and group 5 [AQSA-Glu-treated colitis group (H)], oral gavage of AQSA-Glu (15 mg/kg, equivalent to 5 mg/kg of 5-AIQ) in 1.0 mL of PBS. For the second experiment, the rats were divided into the following six treatment groups (n = 5 per group): group 1 (normal group), oral gavage of 1.0 mL of PBS; group 2 (colitis group), oral gavage of 1.0 mL of PBS; group 3 (SSZ-treated colitis group), oral gavage of SSZ (50 mg/kg) in 1.0 mL of PBS; group 4 (AQSA-Glu-treated colitis group), oral gavage of AQSA-Glu (15 mg/kg) in 1.0 mL of PBS; group 5 (mixture of AQSA-Glu + OSZ-treated colitis group), oral gavage of mixture of AQSA-Glu (15 mg/kg) and OSZ (19 mg/kg, half-equimolar to 50 mg/kg of SSZ) in 1.0 mL of PBS; and group 6 (ABSA-treated colitis group), oral gavage of ABSA (36 mg/kg, equivalent to 50 mg/kg of SSZ) in 1.0 mL of PBS. Three days after the induction of inflammation, each drug was orally administered to rats once daily, and the anticolitic effects were assessed 24 h after the sixth medication. The animal experiment scheme is shown in Supplementary Data S1. The colonic damage score was calculated using a scoring system modified from previously reported criteria. The modified scoring system is shown in Supplementary Data S2. Four independent observers who were blinded to the treatment conditions scored colonic damage according to the scoring system. Myeloperoxidase (MPO) activity in the distal colon (4 cm) was measured as described previously.
Tissue samples (0.2 g/mL) were homogenized in pre-chilled radioimmunoprecipitation assay buffer (50 mM Tris-HCl [pH 7.4], 1 mM EDTA, 0.7% Na deoxycholate, 1% NP-40, 150 mM NaCl, 0.3 μM aprotinin, 1 μM pepstatin, and 1 mM phenylmethylsulfonyl fluoride). The homogenates were centrifuged at 10,000× g at 4 °C for 10 min, followed by agitation on ice for 30 min. Whole and nuclear cell lysates were prepared as described previously. The protein concentrations in the lysates were determined using bicinchoninic acid (Thermo Fisher Scientific, Waltham, MA, USA) according to the manufacturer’s instructions.
Cell and tissue lysates were separated by SDS-PAGE on 10% and 7.5% gels. Nrf2, HO-1, cyclooxygenase-2 (COX-2), and inducible nitric oxide synthase (iNOS) proteins were detected using the following antibodies: anti-Nrf2 (sc-365949, Santa Cruz Biotechnology, Dallas, TX, USA), anti-HO-1 (sc-136961, Santa Cruz Biotechnology), anti-COX-2 (sc-365374, Santa Cruz Biotechnology), anti-iNOS (NOS-2) antibody (sc-7271, Santa Cruz Biotechnology), and secondary antibodies corresponding to the primary antibodies (Santa Cruz Biotechnology). Protein bands were visualized using SuperSignal chemiluminescence substrate (Thermo Fisher Scientific). α-Tubulin were detected using antibodies specific to each protein (Santa Cruz Biotechnology) as loading controls. Western blot images were quantified using Image Lab software (version 5.2 build 14; Bio-Rad, Hercules, CA, USA). The means of the quantified values are presented under each Western blot (n = 3 for cell experiments and n = 5 for animal experiments).
The levels of the inflammatory cytokine-induced neutrophil chemoattractant-3 (CINC-3) in the inflamed distal colon were determined using a CINC-3 ELISA kit (R&D Systems, Minneapolis, MN, USA). […]

Data set [4] in a line: Incubation in the cecal contents of rats (colonic activation). To be noted: 1 mM, 10% cecal contents, under nitrogen. In kind it is in vitro ADME, rat. From the text:
Male Sprague–Dawley rats (250–260 g) were euthanized using CO2 gas before a midline incision was made. The contents of the intestinal tract were collected from the small intestine and cecum obtained from each of three rats and were suspended in pH 6.8 isotonic phosphate buffer to prepare a 20% (w/v) suspension. To maintain anaerobic conditions in the cecum, the cecal contents were collected under a N2 atmosphere in an atmospheric bag (AtmosBag, Sigma, St. Louis, MO, USA). Derivatives of PARP inhibitors (2 mM) dissolved in pH 6.8 isotonic phosphate buffer (5 mL) were mixed with the cecal and small intestinal suspensions (5 mL) and then incubated at 37 °C. The cecal contents were incubated in nitrogen. At predetermined time intervals, a 0.5 mL portion of the mixture was transferred to a microtube and centrifuged at 10,000× g at 4 °C for 10 min. The supernatants (0.1 mL) were mixed with MeOH (0.9 mL), followed by centrifugation at 10,000× g at 4 °C for 7 min. The supernatants were filtered through a membrane filter (0.45 μm), and the concentrations of PARP inhibitors in the filtrates (20 μL) were analyzed using HPLC.

Another data set deals with Caco-2 cell monolayer. Kind of data set: Cell permeability via Caco-2 cell monolayer. In kind it is in vitro ADME. To be noted: 500 µM apical, concentration determined in basolateral compartment. The procedure:
Caco-2 cells (4 × 10^5 per insert) were seeded and grown in Transwell 6-well inserts with a pore size of 0.4 μm (SPL Inc., Houston, TX, USA) until the transepithelial electrical resistance value (EMD Millipore, Billerica, MA, USA) reached 2000 Ω.cm^2. After removing the culture medium (DMEM) containing 1% penicillin/streptomycin from the basolateral and apical (insert) compartments, the apical compartment was filled with DMEM without phenol red (2 mL) containing PARP inhibitors and their derivatives (500 μM), whereas the basolateral compartment was filled with DMEM without phenol red (3 mL). At appropriate time intervals, the drug concentration in the basolateral compartment was determined by HPLC.
On the technique in general: Caco-2 cells form a polarised layer with tight junctions and transporters.

[5] abbreviates: second experiment: SSZ 50 mg/kg, AQSA-Glu 15 mg/kg, AQSA-Glu 15 mg/kg + OSZ 19 mg/kg, ABSA 36 mg/kg, oral once per day, six treatments.

The structures appear in SMILES notation. “Also recorded” adds a separate entry of the source.

On to `Nc1cccc2cnccc12` [5-AIQ, 5-aminoisoquinoline, reference compound], for which, in the data set on PARP, the “concentrations eliciting significant PARP inhibition” value was “micromolar”. Also, the logD in data set [1] is 3.16.

Regarding `Nc1ccc(O)c(C(=O)O)c1` [5-ASA, 5-aminosalicylic acid], the “levels of iNOS and COX-2 proteins” value in data set [2] is “reduced the levels of iNOS and COX-2 proteins”.

`O=C(O)C[C@H](NC(=O)c1cc(/N=N/c2cccc3cnccc23)ccc1O)C(=O)O` [AQSA-Asp] returned a logD in data set [1] of -1.77.

`O=C(O)CC[C@H](NC(=O)c1cc(/N=N/c2cccc3cnccc23)ccc1O)C(=O)O` [AQSA-Glu]: the “amount of 5-AIQ delivered to the cecum” value in data set [3] (AQSA-Glu 29.3 mg/kg (equivalent to 10 mg/kg of 5-AIQ) vs 5-AIQ 10.0 mg/kg, 2, 4, 8 h) is recorded as “much greater amount”. In addition, in the data set with DNBS-induced rat colitis (first experiment, oral once per day for 6 days), the “mucosal recovery (H&E staining of inflamed distal colon)” value is on record as “greater mucosal recovery”. The “colonic damage (colonic damage score)” value in the data set with DNBS-induced rat colitis (first experiment: AQSA-Glu 7.5 and 15 mg/kg (equivalent to 2.5 and 5 mg/kg of 5-AIQ) vs 5-AIQ 5 mg/kg, oral once per day for 6 days) was “substantially improved colonic damage in a dose-dependent manner and were more effective in ameliorating colonic damage than 5-AIQ”. Also, in the data set on DNBS-induced rat colitis (first experiment: AQSA-Glu low and high doses vs 5-AIQ 5 mg/kg, oral once per day for 6 days), the “MPO activity and proinflammatory mediators (CINC-3, iNOS, COX-2) in inflamed distal colon” value was “more effective in suppressing MPO activity and reducing proinflammatory mediators in the inflamed distal colon than 5-AIQ”. In addition, the “effectiveness against rat colitis” value with DNBS-induced rat colitis (first experiment: AQSA-Glu low dose (2.5 mg/kg as 5-AIQ) vs 5-AIQ (5 mg/kg)) is “more effective against rat colitis than 5-AIQ”. In addition, the logD in data set [1] is -1.83.

On to `NC(=O)c1cccc(N=Nc2ccc(O)c(C(=O)O)c2)c1` [ABSA, 5-[(3-carbamoylphenyl)diazenyl]-2-hydroxybenzoic acid], for which the “conversion rate in cecal contents” value in data set [4] was “slightly higher than that of the derivatives of 5-AIQ”. Besides, the “amount of 3-AB delivered to the cecum” value in data set [3] (ABSA 36 mg/kg (equivalent to 17 mg/kg of 3-AB) vs 3-AB 17 mg/kg, 2, 4, 8 h) is “much greater amount”. Also, the “amount and temporal pattern of 5-ASA accumulation in the cecum” value in data set [3] (ABSA 36 mg/kg vs equimolar SSZ 50 mg/kg, 2, 4, 8 h) is listed as “comparable”. In addition, the “effectiveness against rat colitis (anticolitic effects)” value in the data set with DNBS-induced rat colitis (second experiment, same doses) was “more effective against rat colitis than SSZ and AQSA-Glu”. In the data set on DNBS-induced rat colitis (setting [5]), the “colonic damage and mucosal recovery” value is reported as “greater effectiveness in healing colonic injury, including mucosa, than the other single-treatment groups; also recorded: as effective against colonic damage as the mixture”; the “inflammatory indices: MPO activity, CINC-3, iNOS and COX-2 in inflamed colon” value is on record as “greater; also recorded: suppressed to a greater extent by ABSA than by SSZ or AQSA”. The same compound returned a log distribution coefficient (logD) in data set [1] of -1.07. The “transport via the Caco-2 cell monolayer (cell permeability)” value in the data set on Caco-2 cell monolayer is reported as “less cell-permeable than 3-AB”.

On to `O=C(O)c1cc(N=Nc2cccc3cnccc23)ccc1O` [AQSA, 2-hydroxy-5-(isoquinolin-5-yldiazenyl)benzoic acid], for which the logD in data set [1] was determined as 0.31.

As for `NC(=O)c1cccc(N)c1` [3-AB, 3-aminobenzamide, reference compound], in the data set with PARP, the “concentrations eliciting significant PARP inhibition” value is “millimolar”. Moreover, in data set [1], the pH-dependent lipophilicity (logD) stood at 0.33.

The term logD denotes the decadic logarithm of the distribution of all forms, ionised or not, between an organic phase and buffer at a given pH. A lower logD goes with lower lipophilicity.
